From publication PMC5855685 (International Journal of Molecular Sciences, 2018)
In brackets after ≈: the same amount, converted by molar mass. Read-outs that look alike come from different tables or passages of the source.

Assays:
Candida sp. = test: Antifungal activity, MIC on Müeller Hinton Agar; assay type: cell-based; details: for MIC: Candida, read-out: MIC (minimal inhibitory concentration)
Experimental: (§1) The antimicrobial activity of studied compounds was tested against Escherichia coli, Bacillus subtilis, Staphylococcus epidermidis, Streptococcus pyogenes and antifungal activities against Candida sp. The microorganisms used in the experiment were obtained from the American Type Culture Collection-ATCC. Antimicrobial activity was measured as a minimal inhibitory concentration (MIC) with […] Hinton Agar (MHA). Serial two-fold dilutions of chemicals, ranging from 5000, 2500, 1250, 625 to 312, μg/mL were prepared. After the inoculation of microorganisms on MHA plates with certain tested chemical concentrations, the plates were incubated at 37 °C for bacteria and at 30 °C for Candida sp. for 24 and 48 h, respectively. Plates containing sterile water were used as controls. Minimum three repetitions were run for each assay. Ampicillin and kanamycin were used as a reference antibiotics.

[1] = tested on: multi-drug resistant Staphylococcus aureus; set-up: method as in PMID 26528244; details: via inhibition of the activity of sortase A; cited from earlier work
E. coli (Gram−) = test: Antimicrobial activity, MIC on Müeller Hinton Agar; assay type: cell-based, Escherichia coli; details: for MIC: Escherichia coli, read-out: MIC (minimal inhibitory concentration)
Experimental: as §1

Bacillus sp. (Gram+) = test: Antimicrobial activity, MIC on Müeller Hinton Agar; assay type: cell-based, Bacillus subtilis; details: for MIC: read-out: MIC (minimal inhibitory concentration)
Experimental: as §1

[2] = tested on: Streptococcus Pyogenes (Gram+); test: Antimicrobial activity, MIC on Müeller Hinton Agar; assay type: cell-based; details: for MIC: read-out: MIC (minimal inhibitory concentration)
Experimental: as §1

[3] = tested on: Staphylococcus Epidermidis (Gram+); test: Antimicrobial activity, MIC on Müeller Hinton Agar; assay type: cell-based; details: for MIC: read-out: MIC (minimal inhibitory concentration)
Experimental: as §1

Hepatitis B virus = tested on: Hepatitis B virus; set-up: method as in PMID 19463857; details: cited from earlier work
[4] = tested on: E. coli, Bacillus sp., Staphylococcus sp., Streptococcus pyogenes; test: Antibacterial activity, MIC as summarised in the abstract; assay type: cell-based; details: summary over tested bacteria (abstract)
Experimental: as §1

[5] = tested on: Stenotrophomonas maltophilia, Bacillus careus, Enterococcus faecalis, Bacillus subtilis, Streptococcus pneumoniae; set-up: method as in PMID 23509719, PMID 21483731, PMID 22417510; details: range over listed bacteria; cited from earlier work
[6] = DPPH radical scavenging assay; details: methanolic solution, 40 μM DPPH, 1 h, 23 °C, 516 nm
Experimental: Particular volumes of chlorogenic acid and chlorogenate solutions were added into the test tubes and diluted with methanol to obtain a series of solutions at the concentrations 10–0.1 μM (final volume 1 mL). Then, 2 mL of DPPH was added to each tube, vortexed and incubated in the darkness for 1 h at 23 °C. […] The absorbance of the mixture was measured at 516 nm against methanol as the blank using Agilent Carry 5000 spectrophotometer. The control sample—2 mL of DPPH solution and 1 mL of methanol. […] Then, the concentration of the tested substances was plotted against the % inhibition and the IC50 values were read from the scavenging curves. […] The IC50 parameter was also obtained for butylated hydroxyanisol (BHA), butylated hydroxytoluene (BHT) and L-ascorbic acid and compared with those ones calculated for studied compounds.

[7] = FRAP (ferric reducing antioxidant power) assay; details: Fe2+ equivalents
Experimental: Ferric reducing antioxidant activity was determined in FRAP assay. In order to prepare the FRAP reagent the following reagents: 0.3 M acetate buffer (pH 3.6), 10 mM TPTZ (in 40 mM HCl) and 20 mM FeCl3·6H2O (in water) were mixed in a volumetric ratio 10:1:1 directly before analyses. Then, the FRAP reagent (3 mL) was mixed with the tested substance (0.4 mL; final concentrations C = 2.5 and 5.0 μM). The absorbance was measured at 594 nm against blank (3 mL of FRAP and 0.4 mL of methanol) using an Agilent Carry 5000 spectrophotometer (CA, USA). Antioxidant activity was expressed as Fe^2+ equivalents [μM] using the calibration curve prepared over the range of 1000–20 μM concentration of FeSO4.

[8] = Pro-oxidant activity as rate of oxidation of trolox (H2O2 / horseradish peroxide); details: 100 μM trolox, 50 μM H2O2, pH 7, 25 °C, 272 nm
Experimental: Chlorogenic acid and chlorogenates were also tested for their pro-oxidative effect on trolox oxidation. The radicals of chlorogenic acid and chlorogenates are produced in their reaction with H2O2 catalysed by horse radish peroxide. Then the phenoxyl radicals react with trolox which undergoes oxidation to trolox radicals and then trolox quinones. Whereas the phenoxyl radical are transformed to phenolic compounds. The maximum absorption for trolox quinone is 272 nm. This is a general procedure to study the pro-oxidant activity of phenolic compounds [54].
The pro-oxidant activity of the tested compounds were measured as the rate of oxidation of trolox according to the procedure described by Zeraik et al.. 100 μM trolox, 50 μM H2O2, 0.01 μM horseradish peroxide in phosphate buffer (pH = 7) and tested substances with a concentration from 0.05–0.35 μM were incubated at 25 °C. The measurement were conducted at 272 nm using an Agilent Carry 5000 spectrophotometer.

Row | SMILES | MIC (minimal inhibitory concentration) (Candida sp.; MHA plates, 30 °C, 48 h) | EC50 [6] [µM] | FRAP Values C Fe2+ ([7]; Ccompound 5 µM) [µM] | MIC (minimal inhibitory concentration) (E. coli (Gram−); MHA plates, 37 °C, 24 h) [mM] | MIC (minimal inhibitory concentration) (Bacillus sp. (Gram+); MHA plates, 37 °C, 24 h) | MIC (minimal inhibitory concentration) ([2]; MHA plates, 37 °C, 24 h) | MIC (minimal inhibitory concentration) ([3]; MHA plates, 37 °C, 24 h) | FRAP Values C Fe2+ ([7]; Ccompound 2.5 µM) [µM] | further results
1 | O=C(/C=C/c1ccc(O)c(O)c1)O[C@@H]1C[C@](O)(C(=O)O)C[C@@H](O)[C@H]1O [5-CQA, 5-O-caffeoylquinic acid, reference compound] | > 14.11 mM | – | – | – | – | – | – | – | MIC (Candida sp.; 48 h, MHA plates, 30 °C, 48 h): 14.1 mM; MIC (Candida sp.; value in brackets): > 5000 mg/L; IC50 [1]: 33.86 ± 5.55 mg/L (≈ 95.6 µM); MIC (E. coli (Gram−); MHA plates, 37 °C, 24 h): 7.06 mM; MIC (E. coli (Gram−); value in brackets): 2500 mg/L; MIC (Bacillus sp. (Gram+); MHA plates, 37 °C, 24 h): > 7.06 mM; MIC (Bacillus sp. (Gram+); value in brackets): > 2500 mg/L; MIC ([2]; MHA plates, 37 °C, 24 h): > 7.06 mM; MIC ([2]; value in brackets): > 2500 mg/L; MIC ([3]; MHA plates, 37 °C, 24 h): > 7.06 mM; MIC ([3]; value in brackets): > 2500 mg/L; IC50 against Hepatitis B virus (Hepatitis B virus): 0.4 mg/L (≈ 1.13 µM); MIC [4]: 7.06 mM (≈ 2500 µg/mL); MIC [5]: 8 to 64 mg/L
2 | CC1(C)S[C@@H]2[C@H](NC(=O)[C@H](N)c3ccccc3)C(=O)N2[C@H]1C(=O)O [Ampicillin, reference compound] | – | – | – | – | – | – | – | – | MIC (Candida sp.; 48 h, MHA plates, 30 °C, 48 h): 0.57 mM; MIC (E. coli (Gram−); MHA plates, 37 °C, 24 h): 0.43 mM; MIC (Bacillus sp. (Gram+); MHA plates, 37 °C, 24 h): 0.57 mM; MIC ([2]; MHA plates, 37 °C, 24 h): 0.57 mM; MIC ([3]; MHA plates, 37 °C, 24 h): 0.57 mM
3 | Cc1cc(C(C)(C)C)c(O)c(C(C)(C)C)c1 [BHT, butylated hydroxytoluene, reference compound] | – | 52.8 ± 2.83 | 69.66 ± 5.54 | – | – | – | – | – | –
4 | O=C(/C=C/c1ccc(O)c(O)c1)O[C@@H]1C[C@](O)(C(=O)[O-])C[C@@H](O)[C@H]1O.[Cs+] [Cs 5-CQA, caesium chlorogenate] | ˃9.58 mM | 5.89 ± 1.57 | – | 4.79 | ˃4.79 mM | ˃4.79 mM | ˃4.79 mM | 80.47 ± 5.68 | –
5 | O=C(/C=C/c1ccc(O)c(O)c1)O[C@@H]1C[C@](O)(C(=O)[O-])C[C@@H](O)[C@H]1O.[K+] [K 5-CQA, potassium chlorogenate] | 5.96 mM | 5.32 ± 0.49 | 132.00 ± 6.07 | 5.96 | 5.96 mM | ˃5.96 mM | 2.98 mM | 99.89 ± 7.05 | time after which the oxidation of trolox finished ([8]; compound 0.25 μM): 40 min; time after which the oxidation of trolox finished ([8]; compound 0.35 μM): 20 min
6 | NC[C@H]1O[C@H](O[C@H]2[C@H](O)[C@@H](O[C@H]3O[C@H](CO)[C@@H](O)[C@H](N)[C@H]3O)[C@H](N)C[C@@H]2N)[C@H](O)[C@@H](O)[C@@H]1O [Kanamycin, reference compound] | 0.41 mM (≈ 199 µg/mL) | – | – | 0.21 (≈ 102 µg/mL) | 0.21 mM (≈ 102 µg/mL) | 0.21 mM (≈ 102 µg/mL) | 0.21 mM (≈ 102 µg/mL) | – | –
7 | O=C1O[C@H]([C@@H](O)CO)C(O)=C1O [L-ascorbic acid, reference compound] | – | 10.9 ± 0.53 | 81.70 ± 4.23 | – | – | – | – | – | –
8 | O=C(/C=C/c1ccc(O)c(O)c1)O[C@@H]1C[C@](O)(C(=O)[O-])C[C@@H](O)[C@H]1O.[Li+] [Li 5-CQA, lithium chlorogenate] | ˃12.91 mM | 5.28 ± 0.375 | – | 6.46 | ˃6.46 mM | ˃6.46 mM | ˃6.46 mM | 78.93 ± 4.23 | time after which the oxidation of trolox finished ([8]; compound 0.35 μM): 20 min
9 | O=C(/C=C/c1ccc(O)c(O)c1)O[C@@H]1C[C@](O)(C(=O)[O-])C[C@@H](O)[C@H]1O.[Na+] [Na 5-CQA, sodium chlorogenate] | ˃12.40 mM | 4.5 ± 0.36 | 141.13 ± 5.78 | 6.20 | ˃6.20 mM | ˃6.20 mM | ˃6.20 mM | 103.08 ± 2.79 | time after which the oxidation of trolox finished ([8]; compound 0.35 μM): 20 min
10 | O=C(/C=C/c1ccc(O)c(O)c1)O[C@@H]1C[C@](O)(C(=O)[O-])C[C@@H](O)[C@H]1O.[Rb+] [Rb 5-CQA, rubidium chlorogenate] | 5.27 mM | 5.4 ± 0.68 | – | 2.63 | 5.27 mM | 2.63 mM | 5.27 mM | 86.70 ± 2.86 | time after which the oxidation of trolox finished ([8]; compound 0.25 μM): 40 min
11 | Cc1c(C)c2c(c(C)c1O)CCC(C)(C(=O)O)O2 (stereo not shown) [Trolox, reference compound] | – | 8.25 ± 0.75 | 70.85 ± 3.57 | – | – | – | – | – | –
